Values joined by “and” are separate entries in the source; they are usually repeats but may differ in a detail not shown here. Equal values may be shown once.
Tested on: Rattus norvegicus
[1] = short-term, duration: 4 weeks, inhalation, F, Wistar, Adrenal: Adrenal Cortex, Minimal Diffuse Hypertrophy + Blood: Calcium (CA), Blood + Blood: Chloride (CL), Blood + Blood: Inorganic …
[2] = short-term, duration: 4 weeks, inhalation, F, Wistar, Blood: Albumin/Globulin (A/G) Ratio + Blood: Globulin (G), Blood + Blood: Glucose (GLU), Blood + Blood: Potassium (K), Blood + Kidney: Urea…
[3] = short-term, duration: 4 weeks, inhalation, M, Wistar, Adrenal: Adrenal Cortex, Minimal Diffuse Hypertrophy + Blood: Calcium (CA), Blood + Blood: Total Protein (TP), Blood + Liver: Aspartate …
[4] = short-term, duration: 4 weeks, inhalation, M, Wistar, Blood: Chloride (CL), Blood + Blood: Glucose (GLU), Blood + Blood: Hematocrit (HCT) + Blood: Hemoglobin (HGB) + Blood: Red Blood Cell (RBC…
[5] = short-term, duration: 28 days, oral, gavage, F, Sprague-Dawley, Blood: Hematocrit (HCT) + Blood: Hemoglobin (HGB) + Blood: Red Blood Cell (RBC) + Blood: White Blood Cell (WBC) + Kidney: Total Protein (TP…
[6] = short-term, duration: 28 days, oral, gavage, F, Sprague-Dawley, Blood: Lymphocyte + Blood: Mean Corpuscular Volume (MCV) + Blood: Monocytes + Central Nervous System: Spontaneous Locomotion + Intestine: …
[7] = short-term, duration: 28 days, oral, gavage, F, Sprague-Dawley, Blood: Prothrombin Time (PT) + Renal: Albumin (A), Urine
[8] = short-term, duration: 28 days, oral, gavage, M, Sprague-Dawley, Blood: Hematocrit (HCT) + Blood: Hemoglobin (HGB) + Blood: White Blood Cell (WBC) + Central Nervous System: Spontaneous Locomotion + Hair/…
[9] = short-term, duration: 28 days, oral, gavage, M, Sprague-Dawley, Blood: Mean Cell Hemoglobin (MCH) + Blood: Mean Corpuscular Hemoglobin Concentration (MCHC) + Blood: Mean Corpuscular Volume (MCV) + Blood: …
[10] = short-term, duration: 28 days, oral, gavage, M, Sprague-Dawley, Hair/Fur: Alopecia + Lung: Respiration Rate
[11] = short-term, duration: 28 days, oral, gavage, M, Sprague-Dawley, Liver: Liver Weight, Relative
[12] = developmental, duration: 14 days, oral, gavage, M/F, Hsd. Han: WIST, generation: F1, F1: Developmental: Bone: Skeletal Variations + F1: Developmental: Placenta: Placenta Weight, Absolute + F1: Developmental: Placenta: …
[13] = developmental, duration: 14 days, oral, gavage, M/F, Wistar Han, generation: F1, F1: Placenta: Placenta Weight, Absolute + F1: Whole Body: Body Weight, Fetal + F1: Whole Body: Fetal Skeletal Variations
[14] = reproduction developmental, duration: 14 days, oral, gavage, F, Hsd. Han: WIST, generation: P0, P0: Developmental: Uterus: Implantation + P0: Developmental: Uterus: Post-Implantation Loss + P0: Developmental: Uterus: Pre-Implantation …
[15] = reproduction developmental, duration: 14 days, oral, gavage, F, Wistar Han, generation: P0, P0: Kidney: Necropsy, Kidney Observation + P0: Small Intestine: Necropsy, Small Intestine Observation + P0: Stomach: Necropsy, Stomach …
[16] = short-term, duration: 28 days, oral, gavage, F, Sprague-Dawley, Adrenal: Adrenal Gland Weight, Absolute + Adrenal: Adrenal Gland Weight, Relative
[17] = short-term, duration: 28 days, oral, gavage, M/F, Sprague-Dawley, Liver: Liver Histopathology
[18] = short-term, duration: 28 days, oral, gavage, M, Sprague-Dawley, Adrenal: Adrenal Gland Weight, Absolute + Adrenal: Adrenal Gland Weight, Relative

With `FC(F)(I)C(F)(F)C(F)(F)C(F)(F)C(F)(F)C(F)(F)I` [1,6-Diiodoperfluorohexane] the LOAEL [1] was 45.1 mg/m3, the NOAEL [1] was 14.4 mg/m3 and the NOAEL (short-term, duration: 4 weeks, inhalation, F, Wistar, Adrenal: Adrenal Gland Weight, Relative + Basophils + Blood: Activated Partial Thromboplastin Time (APTT) + Blood: Mean Corpuscular …) was 45.1 mg/m3. The LOAEL [2] was 14.4 mg/m3, the NOAEL [2] was 4.48 mg/m3 and 4.49 mg/m3 and the LOAEL (short-term, duration: 4 weeks, inhalation, F, Wistar, Blood: Cholesterol (CHOL), Total, Blood + Blood: Hematocrit (HCT) + Blood: Hemoglobin (HGB) + Blood: Red Blood Cell (RBC) + Brain: Brain …) was 4.48 mg/m3 and 4.49 mg/m3. For the same compound, the LOAEL [3] was 45.1 mg/m3, the NOAEL [3] was 14.4 mg/m3 and the LOAEL (short-term, duration: 4 weeks, inhalation, M, Wistar, Adrenal: Adrenal Gland Weight, Relative + Blood: Globulin (G), Blood + Blood: Inorganic Phosphorous (PHOS), Blood + Blood: Reticulocytes + …) was 4.48 mg/m3 and 4.49 mg/m3. For the same compound, the NOAEL (short-term, duration: 4 weeks, inhalation, M, Wistar, Basophils + Blood: Activated Partial Thromboplastin Time (APTT) + Blood: Albumin/Globulin (A/G) Ratio + Blood: Mean Corpuscular Hemoglobin (…) was 45.1 mg/m3, the LOAEL [4] was 14.4 mg/m3 and the NOAEL [4] was 4.48 mg/m3 and 4.49 mg/m3. It also gave an NOAEL (short-term, duration: 28 days, oral, gavage, F, Sprague-Dawley, Adrenal: Adrenal Gland Histopathology + Adrenal: Adrenal Gland Weight, Relative + Blood: Globulin (G) + Blood: Phosphorous (inorganic) (PHOS…) of 20 mg/kg-day, an LOAEL (short-term, duration: 28 days, oral, gavage, F, Sprague-Dawley, Blood: Activated Partial Thromboplastin Time (APTT) + Blood: Albumin/Globulin (A/G) Ratio + Blood: Mean Cell Hemoglobin (MCH) + Blood: Mean …) of 1 mg/kg-day and an LOAEL [5] of 3 mg/kg-day. The NOAEL [5] was 1 mg/kg-day, the LOAEL [6] was 10 mg/kg-day and the NOAEL [6] was 3 mg/kg-day. The LOAEL [7] was 20 mg/kg-day, the NOAEL [7] was 10 mg/kg-day and the NOAEL (short-term, duration: 28 days, oral, gavage, M, Sprague-Dawley, Adrenal: Adrenal Gland Histopathology + Blood: Globulin (G) + Blood: Lymphocyte + Blood: Monocytes + Blood: Platelet Count (PLT) + Blood: …) was 20 mg/kg-day. The LOAEL (short-term, duration: 28 days, oral, gavage, M, Sprague-Dawley, Adrenal: Adrenal Gland Weight, Relative + Blood: Activated Partial Thromboplastin Time (APTT) + Blood: Albumin/Globulin (A/G) Ratio + Brain…) was 1 mg/kg-day, the LOAEL [8] was 3 mg/kg-day and the NOAEL [8] was 1 mg/kg-day. For the same compound, the LOAEL [9] was 10 mg/kg-day, the NOAEL [9] was 3 mg/kg-day and the LOAEL [10] was 20 mg/kg-day. For the same compound, the NOAEL [10] was 10 mg/kg-day.

Compound `FC(F)C(F)(F)C(F)(F)C(F)(F)C(F)(F)C(F)(F)F` [1H-Perfluorohexane] has an NOAEL (developmental, duration: 20 days, parental, M/F, Wistar, generation: F1, F1: Thyroid: Thyroxine (T4) + F1: Trunk: Anogenital Distance + F1: Whole Body: Body Weight, Fetal + F1: Whole Body: Clinical Observations + …) of 1000 mg/kg-day, an NOAEL (reproduction developmental, duration: 20 days, parental, M, Wistar, generation: F1, F1: Trunk: Areola/Nipple Retention) of 1000 mg/kg-day and an NOAEL (reproduction developmental, duration: 29 days, oral, gavage, M, Wistar, generation: P0, P0: Epididymis: Epididymis Weight, Absolute + P0: Prostate: Prostate Weight, Absolute + P0: Seminal Vesicle: Seminal Vesicles Weight (w/o …) of 1000 mg/kg-day. The NOAEL (reproduction developmental, duration: 29 days, oral, gavage, M, Wistar, generation: P0, P0: Peripheral Nervous System: Functional Observational Battery Tests + P0: Thyroid: Thyroid Gland Weight, Absolute + P0: Thyroid: Thyroxine…) was 1000 mg/kg-day, the NOAEL (reproduction developmental, duration: 64 days, oral, gavage, F, Wistar, generation: P0, P0: Heart: Heart Gross Pathology + P0: Heart: Heart Histopathology + P0: Kidney: Kidney Gross Pathology + P0: Kidney: Kidney Histopathology…) was 1000 mg/kg-day and the NOAEL (reproduction developmental, duration: 64 days, oral, gavage, F, Wistar, generation: P0, P0: Testis: Ovary Histopathology + P0: Uterus: Estrous Cyclicity + P0: Uterus: Implantation + P0: Whole Body: Conception Index + P0: Whole …) was 1000 mg/kg-day. It also gave an NOAEL (short-term, duration: 28 days, oral, gavage, F, Sprague-Dawley, Adrenal: Adrenal Gland Histopathology + Adrenal: Adrenal Gland Weight, Relative + Blood: Hematology, Unspecified + Brain: Brain Weight, …) of 1000 mg/kg-day, an NOAEL (short-term, duration: 28 days, oral, gavage, M, Sprague-Dawley, Adrenal: Adrenal Gland Histopathology + Adrenal: Adrenal Gland Weight + Blood: Hematology, Unspecified + Brain: Brain Weight, Relative + …) of 1000 mg/kg-day and an LOAEL [11] of 1000 mg/kg-day. The NOAEL [11] was 200 mg/kg-day.

`C=C(C)C(=O)OCCC(F)(F)C(F)(F)C(F)(F)C(F)(F)C(F)(F)C(F)(F)F` [2-(Perfluorohexyl)ethyl methacrylate] showed an LOAEL [12] of 1000 mg/kg-day, an NOAEL [12] of 320 mg/kg-day and an LEL [13] of 1000 mg/kg-day. For the same compound, the NEL [13] was 320 mg/kg-day, the NEL (developmental, duration: 14 days, oral, gavage, M/F, Wistar Han, generation: F1, F1: Placenta: Placenta Weight, Relative + F1: Uterus: Fetuses, Dead + F1: Uterus: Fetuses, Live + F1: Whole Body: Fetal External …) was 1000 mg/kg-day and the LOAEL [14] was 1000 mg/kg-day. The NOAEL [14] was 320 mg/kg-day, the NOAEL (reproduction developmental, duration: 14 days, oral, gavage, F, Hsd. Han: WIST, generation: P0, P0: Reproductive: Ovary: Corpora Lutea) was 1000 mg/kg-day and the LEL [15] was 1000 mg/kg-day. The NEL [15] was 320 mg/kg-day, the NEL (reproduction developmental, duration: 14 days, oral, gavage, F, Wistar Han, generation: P0, P0: Ovary: Corpora Lutea + P0: Uterus: Implantation + P0: Uterus: Post-Implantation Loss + P0: Uterus: Pre-Implantation Loss + P0: Whole …) was 1000 mg/kg-day and the NEL (short-term, duration: 28 days, oral, gavage, F, Crl:CD(SD), Adrenal: Adrenal Gland Weight, Absolute + Adrenal: Adrenal Gland Weight, Absolute, Recovery + Adrenal: Adrenal Gland Weight, Relative + …) was 25 mg/kg-day. It also gave an NEL (short-term, duration: 28 days, oral, gavage, F, Crl:CD(SD), Liver: Liver Weight, Absolute + Liver: Liver Weight, Relative + Teeth: Decreased Iron Pigment, Ameloblasts (28 d)) of 5 mg/kg-day, an LEL (short-term, duration: 28 days, oral, gavage, F, Crl:CD(SD), Liver: Liver Weight, Absolute + Liver: Liver Weight, Relative + Teeth: Decreased Iron Pigment, Ameloblasts (28 d) + Teeth: Teeth, Mottled (…) of 25 mg/kg-day and an NEL (short-term, duration: 28 days, oral, gavage, M, Crl:CD(SD), Adrenal: Adrenal Gland Weight, Absolute + Adrenal: Adrenal Gland Weight, Absolute, Recovery + Adrenal: Adrenal Gland Weight, Relative + …) of 25 mg/kg-day. It also gave an NEL (short-term, duration: 28 days, oral, gavage, M, Crl:CD(SD), Kidney: Kidney Weight, Relative + Teeth: Decreased Iron Pigment, Ameloblasts (28 d)) of 5 mg/kg-day and an LEL (short-term, duration: 28 days, oral, gavage, M, Crl:CD(SD), Kidney: Kidney Weight, Relative + Teeth: Decreased Iron Pigment, Ameloblasts (28 d) + Teeth: Teeth, Mottled (42 d)) of 25 mg/kg-day.

`CCOC(F)(C(F)(F)C(F)(F)C(F)(F)F)C(F)(C(F)(F)F)C(F)(F)F` (stereo not drawn) [3-Ethoxyperfluoro(2-methylhexane)] was tested, and the NOAEL (developmental, duration: 26 days, parental, M/F, Sprague-Dawley, generation: F1, F1: Whole Body: Clinical Observations + F1: Whole Body: Litter Size + F1: Whole Body: Necropsy Appeared Normal + F1: Whole Body: Pup Body …) was 1000 mg/kg-day, the NOAEL (reproduction developmental, duration: 2 weeks, oral, gavage, F, Sprague-Dawley, generation: P0, P0: Ovary: Ovary, Non-Neoplastic Lesions + P0: Uterus: Estrous Cycle + P0: Uterus: Implantation + P0: Whole Body: Clinical Observations + P0…) was 1000 mg/kg-day and the NOAEL (reproduction developmental, duration: 2 weeks, oral, gavage, M, Sprague-Dawley, generation: P0, P0: Epididymis: Epididymis Weight, Absolute + P0: Epididymis: Epididymis Weight, Relative + P0: Epididymis: Epididymis, Non-Neoplastic …) was 1000 mg/kg-day. It also gave an LOAEL [16] of 1000 mg/kg-day, an NOAEL [16] of 200 mg/kg-day and an NOAEL (short-term, duration: 28 days, oral, gavage, F, Sprague-Dawley, Ovary: Ovary Weight, Absolute + Ovary: Ovary Weight, Relative + Spleen: Spleen Weight, Absolute) of 1000 mg/kg-day. The LOAEL (short-term, duration: 28 days, oral, gavage, F, Sprague-Dawley, Spleen: Spleen Weight, Relative) was 40 mg/kg-day, the NOAEL (short-term, duration: 28 days, oral, gavage, M/F, Sprague-Dawley, Blood: Clinical Chemistry, Unspecified + Kidney: Urinalysis, Unspecified + Whole Body: Body Weight Change + Whole Body: Clinical …) was 1000 mg/kg-day and the LOAEL [17] was 1000 mg/kg-day. For the same compound, the NOAEL [17] was 200 mg/kg-day, the LOAEL [18] was 1000 mg/kg-day and the NOAEL [18] was 200 mg/kg-day. For the same compound, the LOAEL (short-term, duration: 28 days, oral, gavage, M, Sprague-Dawley, Spleen: Spleen Weight, Absolute + Spleen: Spleen Weight, Relative) was 40 mg/kg-day.
